Patent US8048915B2, “Biologically active complex” (BioMas Ltd., priority 2001, dated 2011)
Where “and” joins values, the source holds several entries; their conditions need not be identical. Identical values can stand only once. Like-named read-outs stand apart in the source and are kept apart here.

Legend:
[1] = system: Ha-Ras transformed NIH-3T3 cells; test: Colony growth of Ha-Ras transformed NIH-3T3 cells; type: cell-based; details: 0.005-5 μg/ml in PBS; one week; clones counted
Description: (§1) 5×10^2 cells were plated per 60 mm dish and incubated with different concentrations (0.005-5 μg/ml) of the complex in PBS. A week later, the cells were stained with Gimsa and clones were counted. Similar experiments were conducted using V-mos transformed NIH-3T3 cells, and also using Ph2TeCl2 and Ph3TeCl, with both types of transformed cells.

[2] = system: V-mos transformed NIH-3T3 cells; test: Colony growth of V-mos transformed NIH-3T3 cells; type: cell-based; details: one week; clones counted
Description: as §1

[3] = Solubility in phosphate buffer solution (PBS) at pH7; type: physicochemical
[4] = system: IL-2 receptors of human mononuclear cells; test: Induction of IL-2 receptors of human mononuclear cells (proliferation with recombinant IL-2, 3H thymidine uptake); type: cell-based
Description: Human MNC were brought to a concentration of 10^6 cells/ml. RPMI+10% FCS. Aliquots of 0.2 ml. were placed in duplicate wells of microdishes and plates were incubated at 37° C. for 24 hrs. […] Plates were further incubated for 48 hrs and labeled with ^3H thymidine 24 hrs before harvesting. The proliferation was measured by ^3HT uptake as described by Gillis et al, J. Immunol. […] The results are expressed in counts per minute.

human mononuclear cells [5] = test: Proliferation of human mononuclear cells (Example 14); type: cell-based; details: for proliferation of human mononuclear cells (3H methyl-thymidine): 72 hours + 24 hours label
Description: Human mononuclear cells were obtained by layering heparinized blood over a Ficoll/Hypaque gradient. The mononuclear cells were resuspended in enriched RPMI, rinsed three times and brought to a concentrations of 5×10^5cells/ml enriched RPMI. Varying concentrations of the complexes of Ex. 1 and Ex. 7(a), ranging from 0.005 μg to 5 μg/cell mixture were added to the cells. Aliquots of 0.2 ml of each sample were placed in wells of microplates (triplicates).

IL-2 receptors = test: IL-2 receptor sites on human mononuclear cells, fluoresceinated antibody; type: cell-based
Description: This example provides an assay to detect the presence of receptor sites for IL-2. […] The cells were washed twice with PBS and then incubated with a specific fluoresceinated antibody against IL-2 receptors as described in Uchiyama et al, J. Immunol.

human mononuclear cells [6] = test: Proliferation of human mononuclear cells (Example 14); type: cell-based; details: 72 hours + 24 hours label
human mononuclear cells [7] = details: range of 1 to 10 ng/ml of cells; 72 hours incubation
Description: Aliquots of 0.2 ml from each sample were placed in wells of microplates (NUNC) (triplicates). […] Cells were further incubated overnight and harvested with a cell harvester.
Cells were further incubated overnight and harvested with a cell harvester.

IL-2 = system: IL-2
Description: The complexes were administered in these dilutions, as drinking water, to male Balb-C mice, 6-8 weeks of age over a 4 day period. The exact amount of liquid intake was recorded daily. […] The cells were incubated at a concentration of 10^7 cells/ml in enriched RPMI containing 2 μg/ml of con-A for 24 hours at 37° C. The supernatants were collected and tested for IL-2 content.

[8] = 10 μg/ml H2O as drinking water over 4 days

With Cl[Te](Cl)(c1ccccc1)c1ccccc1 [Ph2TeCl2, reference compound] the “number of colonies / growth compared with control” value [1] was “did not inhibit their growth” and the inhibition of growth [2] was “none of the complex, Ph2TeCl2 or Ph3TeCl inhibited the growth”.
With Cl[Te](c1ccccc1)(c1ccccc1)c1ccccc1 [Ph3TeCl, reference compound] the “number of colonies / growth compared with control” value [1] was “did not inhibit their growth” and the inhibition of growth [2] was “none of the complex, Ph2TeCl2 or Ph3TeCl inhibited the growth”.
With Cl[Te](Cl)(Cl)Cl [TeCl4, tellurium tetrachloride] the solubility [3] was 2.3 ± 0.1; mg Te/100 ml PBS.
In the case of O=[Te]=O [TeO2, Tellurium dioxide, reference compound], the “proliferation, 3HT uptake” value ([4]; Test A, 1 μg/ml) is reported as 1563 counts per minute, the “proliferation, 3HT uptake” value ([4]; Test A, 1 × 10^−2 μg/ml) is reported as 3108 counts per minute and the “proliferation, 3HT uptake” value ([4]; Test A, 1 × 10^−3 μg/ml) is reported as 2867 counts per minute. The “proliferation, 3HT uptake” value ([4]; Test A, 1 × 10^−4 μg/ml) was 5540 counts per minute, the “proliferation, 3HT uptake” value ([4]; Test A, 1 × 10^−5 μg/ml) was 3442 counts per minute and the “proliferation, 3HT uptake” value ([4]; Test A, 5 × 10^−1 μg/ml) was 4667 counts per minute. The “proliferation, 3HT uptake” value ([4]; Test A, 5 × 10^−2 μg/ml) was 2515 counts per minute, the “proliferation, 3HT uptake” value ([4]; Test A, 7 × 10^−1 μg/ml) was 2475 counts per minute and the “proliferation, 3HT uptake” value ([4]; Test B, 1 μg/ml) was 3275 counts per minute. The “proliferation, 3HT uptake” value ([4]; Test B, 1 × 10^−2 μg/ml) was 3077 counts per minute, the “proliferation, 3HT uptake” value ([4]; Test B, 1 × 10^−3 μg/ml) was 3800 counts per minute and the “proliferation, 3HT uptake” value ([4]; Test B, 1 × 10^−4 μg/ml) was 2925 counts per minute. The “proliferation, 3HT uptake” value ([4]; Test B, 1 × 10^−5 μg/ml) was 3645 counts per minute, the “proliferation, 3HT uptake” value ([4]; Test B, 5 × 10^−1 μg/ml) was 5405 counts per minute and the “proliferation, 3HT uptake” value ([4]; Test B, 5 × 10^−2 μg/ml) was 4280 counts per minute. For the same compound, the “proliferation, 3HT uptake” value ([4]; Test B, 7 × 10^−1 μg/ml) was 4302 counts per minute, the “proliferation of human mononuclear cells (3H methyl-thymidine)” value (shortened to “proliferation … (3H methyl-thymidine)”) (human mononuclear cells [5]; 1 μg/ml) was 2842 and the “proliferation … (3H methyl-thymidine)” value (human mononuclear cells [5]; 5 μg/ml) was 3028. For the same compound, the “proliferation … (3H methyl-thymidine)” value (human mononuclear cells [5]; 1 × 10^−1 μg/ml) was 4825, the “proliferation … (3H methyl-thymidine)” value (human mononuclear cells [5]; 1 × 10^−2 μg/ml) was 4730 and the “proliferation … (3H methyl-thymidine)” value (human mononuclear cells [5]; 5 × 10^−1 μg/ml) was 4773. For the same compound, the “proliferation … (3H methyl-thymidine)” value (human mononuclear cells [5]; 5 × 10^−2 μg/ml) was 5802, the “effect on proliferation of human mononuclear cells” value (human mononuclear cells [5]; any concentration that was tested) was “*The concentrations that induced proliferation range from 5 × 10^−1 to 1 × 10^−1 μg. No significant effect was found for TeO2 at any concentration that was tested” and the “cells positive for IL-2 receptors” value (IL-2 receptors; 1 μg/ml, 24 hours incubation) was 5%. The “proliferation … (3H methyl-thymidine)” value (human mononuclear cells [6]; 1 × 10^−3 μg/ml) was 6168 and the “proliferation … (3H methyl-thymidine)” value (human mononuclear cells [6]; 1 × 10^−4 μg/ml) was 5331.
In the case of C1CO[Te]2(O1)OCCO2 [preparation 3], the solubility [3] is reported as 16 ± 0.4; mg Te/100 ml PBS.
For “Phytohemagglutinin M [Phytohemagglutinin M (Difco), reference compound]”, the “proliferation, 3HT uptake” value ([4]; Test A, positive control, concentration not given) was “Phytohemagglutinin M (Difco) 195,432 counts per minute”, the “proliferation, 3HT uptake” value ([4]; Test B, positive control, concentration not given) was “Phytohemagglutinin M (Difco) 125,272 counts per minute” and the “cells positive for IL-2 receptors” value (IL-2 receptors; in the presence of PHA, concentration not given) was 80%.
With “equimolar complex of TeO2 and ethane-1,2-diol [7(b)]” the “proliferation, 3HT uptake” value ([4]; Test B, 1 μg/ml) was 2620 counts per minute, the “proliferation, 3HT uptake” value ([4]; Test B, 1 × 10^−2 μg/ml) was 3928 counts per minute and the “proliferation, 3HT uptake” value ([4]; Test B, 1 × 10^−3 μg/ml) was 3007 counts per minute. For the same compound, the “proliferation, 3HT uptake” value ([4]; Test B, 1 × 10^−4 μg/ml) was 2327 counts per minute, the “proliferation, 3HT uptake” value ([4]; Test B, 1 × 10^−5 μg/ml) was 2242 counts per minute and the “proliferation, 3HT uptake” value ([4]; Test B, 5 × 10^−1 μg/ml) was 2402 counts per minute. For the same compound, the “proliferation, 3HT uptake” value ([4]; Test B, 5 × 10^−2 μg/ml) was 3290 counts per minute and the “proliferation, 3HT uptake” value ([4]; Test B, 7 × 10^−1 μg/ml) was 2000 counts per minute.
For “equimolar complex of TeO2 and ethylene glycol [Example 7(a)]”, the “increase of proliferation of human mononuclear cells” value (human mononuclear cells [7]) was 10 fold, the “IL-2 content, cpm” value (IL-2; 1 μg/ml H2O as drinking water over 4 days) was 32843 cpm and the “IL-2 content, cpm” value (IL-2; [8]) was 42500 cpm. For the same compound, the “Percent increase as compared to control” value (IL-2; [8]) was “+30%”, the “IL-2 content, cpm” value (IL-2; 25 μg/ml H2O as drinking water over 4 days) was 36815 cpm and the “inducing lymphokine production when given orally” value (IL-2; orally in an aqueous diluent) was “active”. The “proliferation, 3HT uptake” value ([4]; Test B, 1 μg/ml) was 9315 counts per minute, the “proliferation, 3HT uptake” value ([4]; Test B, 1 × 10^−2 μg/ml) was 6418 counts per minute and the “proliferation, 3HT uptake” value ([4]; Test B, 1 × 10^−3 μg/ml) was 5167 counts per minute. For the same compound, the “proliferation, 3HT uptake” value ([4]; Test B, 1 × 10^−4 μg/ml) was 5372 counts per minute, the “proliferation, 3HT uptake” value ([4]; Test B, 1 × 10^−5 μg/ml) was 6397 counts per minute and the “proliferation, 3HT uptake” value ([4]; Test B, 5 × 10^−1 μg/ml) was 8688 counts per minute. The “proliferation, 3HT uptake” value ([4]; Test B, 5 × 10^−2 μg/ml) was 5538 counts per minute, the “proliferation, 3HT uptake” value ([4]; Test B, 7 × 10^−1 μg/ml) was 5250 counts per minute and the “proliferation … (3H methyl-thymidine)” value (human mononuclear cells [5]; 1 × 10^−4 μg/ml, listed as Ex. 7(a)) was 4321 and 2332. The “proliferation … (3H methyl-thymidine)” value (human mononuclear cells [5]; 5 × 10^−2 μg/ml, listed as Ex. 7(a)) was 5953 and 5532.
